Activity calls are given as the source filed them. The calls are words filed in the database; no cut-off is given here.

Series [1] addresses Phosphatidylinositol 4,5-bisphosphate 3-kinase catalytic subunit alpha isoform (Homo sapiens, UniProt P42336).
The nature of series [2]: in vivo. The settings on record: rat, plasma, iv, 1 mg/kg.
Series [3] concerns the target Serine/threonine-protein kinase mTOR (Homo sapiens, UniProt P42345). As to the kind of experiment: Inhibition of mTOR.
The test system of series [4] is PC-3. The series can be described thus: Antiproliferative activity against human PC3 cells. In kind it is functional, cell-based.
Series [5] concerns MCF7. As to the kind of experiment: Antiproliferative activity against human MCF7 cells. In kind it is functional, cell-based.
Series [6] in a line: Plasma protein binding in human. Format: ADME, cell-free. As to conditions: read-out: PPB (converted).
The nature of series [7]: Plasma protein binding in rat. Format: ADME, cell-free. As to conditions: read-out: PPB (converted).
A short description of series [8]: Plasma protein binding in mouse. In kind it is ADME, cell-free. As to conditions: read-out: PPB (converted).
A short description of series [9]: Plasma protein binding in dog. As to conditions: read-out: PPB (converted). Format: ADME, cell-free, Canis lupus familiaris.
Series [10] in a line: Plasma protein binding in cynomolgus monkey. In kind it is ADME, cell-free, Macaca fascicularis. The settings on record: read-out: PPB.
Series [11] in a line: Plasma clearance in rat at 100 mg/kg. Format: ADME, organism-based. Further details: dose 100 mg/kg.
Series [12] in a line: Oral bioavailability in rat at 100 mg/kg. Format: ADME, organism-based. As to conditions: in vivo.
The nature of series [13]: AUC in rat at 100 mg/kg. The arrangement: dose 100 mg/kg. The settings on record: plasma. Format: ADME, organism-based.
The nature of series [14]: Plasma clearance in mouse at 100 mg/kg. Format: ADME, organism-based. Further details: dose 100 mg/kg.
Series [15] in a line: Oral bioavailability in mouse at 100 mg/kg. The settings on record: in vivo. Format: ADME, organism-based.
The nature of series [16]: AUC in mouse at 100 mg/kg. Format: ADME, organism-based. The arrangement: dose 100 mg/kg. As to conditions: plasma.
A short description of series [17]: Plasma clearance in cynomolgus monkey. Format: ADME, organism-based, Macaca fascicularis.
The subject of series [18] is Mus musculus. The series can be described thus: Inhibition of PI3K pathway in nude mouse xenografted with HER2 expressing MCF7 assessed as reduction in phosphorylated AKT levels at 50 mg/kg, po administered as single dose after 6 hrs relative to control. Format: functional, organism-based. The arrangement: dose 50 mg/kg.
In series [19] the test system is Mus musculus. The series can be described thus: Inhibition of PI3K pathway in nude mouse xenografted with HER2 expressing MCF7 assessed as reduction in phosphorylated PRAS40 levels at 50 mg/kg, po administered as single dose after 6 hrs relative to control. Format: functional, organism-based. The arrangement: dose 50 mg/kg.
Series [20] relates to Mus musculus. The series can be described thus: Inhibition of PI3K pathway in nude mouse xenografted with HER2 expressing MCF7 assessed as reduction in phosphorylated S6RP levels at 50 mg/kg, po administered as single dose after 6 hrs relative to control. Format: functional, organism-based. The arrangement: dose 50 mg/kg.
Series [21] in a line: Plasma clearance in dog at 2 mg/kg. Format: ADME, organism-based, Canis lupus familiaris. Further details: dose 2 mg/kg.
The nature of series [22]: Oral bioavailability in dog at 2 mg/kg. Format: ADME, organism-based, Canis lupus familiaris. The settings on record: in vivo.
A short description of series [23]: AUC in dog at 2 mg/kg. As to conditions: plasma. In kind it is ADME, organism-based, Canis lupus familiaris. The arrangement: dose 2 mg/kg.
Series [24] has as its target DNA-dependent protein kinase catalytic subunit (Homo sapiens, UniProt P78527). As to the kind of experiment: Inhibition of DNA-PK.
Series [25] is described as follows: in vivo. As to conditions: mouse, plasma, iv, 1 mg/kg.
A short description of series [26]: in vivo. The settings on record: nude, mouse, plasma, po, 50 mg/kg.
Series [27] in a line: in vivo. As to conditions: nude, mouse, plasma, po, 50 mg/kg. The source holds these as a separate data set.
The nature of series [28]: in vivo. As to conditions: nude, mouse, tumor, po, 50 mg/kg.
Series [29] is described as follows: in vivo. The settings on record: nude, mouse, tumor, po, 50 mg/kg. This is another data set of the same source.
The test system of series [30] is Hepatocyte. As to the kind of experiment: Metabolic stability in cryopreserved human hepatocytes assessed as N-(2-chlorophenyl)-N-methyl-8-(1H-pyrazol-4-yl)-4,5-dihydrobenzo[b]thieno[2,3-d]oxepine-2-carboxamide formation. Format: ADME, cell-based.

Sequence of Phosphatidylinositol 4,5-bisphosphate 3-kinase catalytic subunit alpha isoform (P42336 whole entry, canonical isoform): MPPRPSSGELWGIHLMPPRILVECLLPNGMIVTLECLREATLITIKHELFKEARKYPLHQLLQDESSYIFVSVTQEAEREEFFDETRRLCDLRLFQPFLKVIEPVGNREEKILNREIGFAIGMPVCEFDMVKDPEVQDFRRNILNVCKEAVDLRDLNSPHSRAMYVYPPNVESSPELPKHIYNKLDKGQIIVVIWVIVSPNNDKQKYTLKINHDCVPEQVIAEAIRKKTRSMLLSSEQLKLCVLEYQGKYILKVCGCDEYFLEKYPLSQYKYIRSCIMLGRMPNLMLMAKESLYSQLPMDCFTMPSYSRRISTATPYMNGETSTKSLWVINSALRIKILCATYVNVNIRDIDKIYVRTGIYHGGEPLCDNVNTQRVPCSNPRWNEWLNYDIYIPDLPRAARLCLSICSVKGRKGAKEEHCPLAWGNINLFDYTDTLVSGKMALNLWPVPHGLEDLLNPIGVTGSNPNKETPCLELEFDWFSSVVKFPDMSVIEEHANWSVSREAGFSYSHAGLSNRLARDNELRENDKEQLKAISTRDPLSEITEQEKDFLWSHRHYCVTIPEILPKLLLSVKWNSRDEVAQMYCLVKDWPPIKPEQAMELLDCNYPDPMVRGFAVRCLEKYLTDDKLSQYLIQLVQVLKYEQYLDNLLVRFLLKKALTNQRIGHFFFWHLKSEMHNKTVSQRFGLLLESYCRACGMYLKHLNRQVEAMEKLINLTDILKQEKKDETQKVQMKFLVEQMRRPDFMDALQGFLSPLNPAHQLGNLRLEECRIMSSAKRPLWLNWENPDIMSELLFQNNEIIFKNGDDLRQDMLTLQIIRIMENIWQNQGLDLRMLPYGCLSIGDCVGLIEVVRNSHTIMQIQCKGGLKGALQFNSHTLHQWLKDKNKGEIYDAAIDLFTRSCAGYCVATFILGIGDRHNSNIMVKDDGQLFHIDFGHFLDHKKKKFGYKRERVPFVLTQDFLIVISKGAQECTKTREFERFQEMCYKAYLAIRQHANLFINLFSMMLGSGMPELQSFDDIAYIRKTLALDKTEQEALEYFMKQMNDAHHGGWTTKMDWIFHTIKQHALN
Sequence of DNA-dependent protein kinase catalytic subunit (P78527 whole entry): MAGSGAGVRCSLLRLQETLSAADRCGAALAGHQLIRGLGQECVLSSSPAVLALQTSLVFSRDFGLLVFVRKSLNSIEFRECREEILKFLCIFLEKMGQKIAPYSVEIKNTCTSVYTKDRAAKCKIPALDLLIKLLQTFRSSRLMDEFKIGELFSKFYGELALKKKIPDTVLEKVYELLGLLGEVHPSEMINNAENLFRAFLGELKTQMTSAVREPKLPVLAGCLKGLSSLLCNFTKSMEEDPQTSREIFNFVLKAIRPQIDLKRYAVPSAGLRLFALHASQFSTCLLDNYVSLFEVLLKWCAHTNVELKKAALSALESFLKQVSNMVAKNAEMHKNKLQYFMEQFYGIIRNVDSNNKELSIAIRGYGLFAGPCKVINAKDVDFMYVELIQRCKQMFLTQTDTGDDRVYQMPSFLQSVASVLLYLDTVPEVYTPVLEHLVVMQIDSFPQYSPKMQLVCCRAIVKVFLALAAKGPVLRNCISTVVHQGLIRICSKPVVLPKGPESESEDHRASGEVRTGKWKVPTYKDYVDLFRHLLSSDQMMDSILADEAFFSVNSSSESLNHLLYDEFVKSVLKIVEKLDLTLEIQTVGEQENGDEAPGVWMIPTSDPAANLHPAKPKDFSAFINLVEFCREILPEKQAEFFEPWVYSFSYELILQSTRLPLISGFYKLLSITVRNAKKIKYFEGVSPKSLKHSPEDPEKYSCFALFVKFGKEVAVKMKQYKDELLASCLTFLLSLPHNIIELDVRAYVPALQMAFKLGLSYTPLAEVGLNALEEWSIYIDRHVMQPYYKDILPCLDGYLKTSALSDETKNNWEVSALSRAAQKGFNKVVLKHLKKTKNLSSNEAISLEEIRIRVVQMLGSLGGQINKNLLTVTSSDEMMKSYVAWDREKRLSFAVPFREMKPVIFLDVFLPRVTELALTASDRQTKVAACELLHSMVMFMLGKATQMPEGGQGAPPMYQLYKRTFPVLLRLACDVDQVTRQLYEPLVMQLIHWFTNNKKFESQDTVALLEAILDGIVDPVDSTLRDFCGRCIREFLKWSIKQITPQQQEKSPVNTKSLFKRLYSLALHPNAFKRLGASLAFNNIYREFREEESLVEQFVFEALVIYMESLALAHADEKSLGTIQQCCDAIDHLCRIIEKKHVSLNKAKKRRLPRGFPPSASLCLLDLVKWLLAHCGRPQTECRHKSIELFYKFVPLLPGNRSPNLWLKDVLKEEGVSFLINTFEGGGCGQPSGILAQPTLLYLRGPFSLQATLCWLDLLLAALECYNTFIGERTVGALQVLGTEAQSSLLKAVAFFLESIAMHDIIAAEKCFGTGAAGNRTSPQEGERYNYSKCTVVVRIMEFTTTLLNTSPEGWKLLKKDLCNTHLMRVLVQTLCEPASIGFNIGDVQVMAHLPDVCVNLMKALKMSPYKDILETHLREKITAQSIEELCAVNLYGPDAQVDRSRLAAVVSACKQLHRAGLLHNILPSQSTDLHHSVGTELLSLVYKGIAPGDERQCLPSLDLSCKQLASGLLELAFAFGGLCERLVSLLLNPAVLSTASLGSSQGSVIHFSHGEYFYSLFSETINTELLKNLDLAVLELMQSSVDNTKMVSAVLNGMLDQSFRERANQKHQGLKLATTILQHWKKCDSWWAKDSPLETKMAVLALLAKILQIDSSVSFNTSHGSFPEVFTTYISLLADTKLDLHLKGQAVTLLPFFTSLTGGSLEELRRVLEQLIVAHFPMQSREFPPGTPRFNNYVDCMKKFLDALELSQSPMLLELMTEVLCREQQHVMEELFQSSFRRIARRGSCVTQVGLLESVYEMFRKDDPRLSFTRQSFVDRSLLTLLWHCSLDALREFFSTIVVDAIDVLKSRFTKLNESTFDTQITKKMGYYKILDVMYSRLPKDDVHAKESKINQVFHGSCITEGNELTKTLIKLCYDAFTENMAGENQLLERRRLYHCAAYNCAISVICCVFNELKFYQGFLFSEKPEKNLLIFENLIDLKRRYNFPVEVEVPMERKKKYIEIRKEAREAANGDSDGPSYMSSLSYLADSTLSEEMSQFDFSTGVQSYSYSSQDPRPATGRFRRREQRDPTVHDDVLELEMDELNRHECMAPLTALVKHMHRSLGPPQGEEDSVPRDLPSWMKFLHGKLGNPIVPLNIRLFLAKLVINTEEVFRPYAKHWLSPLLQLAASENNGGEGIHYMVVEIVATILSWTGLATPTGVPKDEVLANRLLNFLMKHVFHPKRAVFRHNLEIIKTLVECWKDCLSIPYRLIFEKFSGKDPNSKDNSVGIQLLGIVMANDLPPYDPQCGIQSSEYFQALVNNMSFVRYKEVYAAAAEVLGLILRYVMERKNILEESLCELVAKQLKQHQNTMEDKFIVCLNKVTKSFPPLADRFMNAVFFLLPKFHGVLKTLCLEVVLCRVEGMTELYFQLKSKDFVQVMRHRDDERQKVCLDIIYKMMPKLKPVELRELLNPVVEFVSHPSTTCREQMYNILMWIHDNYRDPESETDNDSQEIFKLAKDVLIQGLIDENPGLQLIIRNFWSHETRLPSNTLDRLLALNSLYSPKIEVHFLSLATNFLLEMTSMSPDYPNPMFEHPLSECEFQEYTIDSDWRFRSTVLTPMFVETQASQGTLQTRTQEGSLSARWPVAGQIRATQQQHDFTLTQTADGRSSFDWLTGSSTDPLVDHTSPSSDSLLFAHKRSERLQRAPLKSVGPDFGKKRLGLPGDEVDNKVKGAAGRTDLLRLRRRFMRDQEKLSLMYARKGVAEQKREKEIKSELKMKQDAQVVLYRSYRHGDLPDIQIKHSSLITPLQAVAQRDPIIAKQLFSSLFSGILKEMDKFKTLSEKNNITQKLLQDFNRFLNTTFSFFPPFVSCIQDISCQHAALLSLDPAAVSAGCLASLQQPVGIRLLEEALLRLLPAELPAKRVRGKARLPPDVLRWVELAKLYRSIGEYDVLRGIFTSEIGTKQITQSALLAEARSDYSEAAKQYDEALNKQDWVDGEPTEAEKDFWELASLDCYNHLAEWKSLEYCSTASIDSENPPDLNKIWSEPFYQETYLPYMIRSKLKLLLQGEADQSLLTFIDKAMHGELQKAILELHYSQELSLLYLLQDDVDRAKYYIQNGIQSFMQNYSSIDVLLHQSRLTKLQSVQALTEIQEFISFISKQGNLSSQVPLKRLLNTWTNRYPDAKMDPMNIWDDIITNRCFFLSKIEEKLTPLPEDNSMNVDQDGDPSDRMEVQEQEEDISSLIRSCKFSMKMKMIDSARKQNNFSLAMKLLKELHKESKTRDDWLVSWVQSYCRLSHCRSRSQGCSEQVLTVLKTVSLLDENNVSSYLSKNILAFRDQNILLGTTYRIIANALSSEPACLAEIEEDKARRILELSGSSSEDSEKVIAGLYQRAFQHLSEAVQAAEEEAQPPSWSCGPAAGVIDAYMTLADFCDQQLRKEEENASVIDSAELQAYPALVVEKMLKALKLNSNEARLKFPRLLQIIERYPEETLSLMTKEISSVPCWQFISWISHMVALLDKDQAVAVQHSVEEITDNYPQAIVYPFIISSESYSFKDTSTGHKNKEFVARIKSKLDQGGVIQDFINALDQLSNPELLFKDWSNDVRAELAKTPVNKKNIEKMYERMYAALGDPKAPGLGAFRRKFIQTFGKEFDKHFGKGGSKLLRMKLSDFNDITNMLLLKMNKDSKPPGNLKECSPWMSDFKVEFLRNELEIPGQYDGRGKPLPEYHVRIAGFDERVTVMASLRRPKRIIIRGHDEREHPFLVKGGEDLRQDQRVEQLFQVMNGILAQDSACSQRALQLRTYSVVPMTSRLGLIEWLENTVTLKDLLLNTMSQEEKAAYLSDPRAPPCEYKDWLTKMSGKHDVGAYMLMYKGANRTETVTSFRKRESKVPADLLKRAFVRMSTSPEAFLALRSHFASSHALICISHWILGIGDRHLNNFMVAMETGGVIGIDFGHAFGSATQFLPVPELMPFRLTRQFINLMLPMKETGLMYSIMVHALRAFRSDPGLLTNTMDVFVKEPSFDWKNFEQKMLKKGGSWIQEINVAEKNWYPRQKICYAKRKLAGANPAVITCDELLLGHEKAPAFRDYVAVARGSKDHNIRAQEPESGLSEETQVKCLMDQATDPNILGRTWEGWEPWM

`CN(C(=O)c1cc2c(s1)-c1ccccc1OC2)c1ccccn1`: the IC50 (commonly the point on the concentration scale where inhibition reaches its midpoint) in series [1] is more than 10 µM.
The same measure, in the same setting: then `CN(C(=O)c1cc2c(s1)-c1ccccc1OC2)c1ccc(F)cc1`, with 1 µM.
Consider `COC(=O)Nc1ccc2c(c1)OCCc1cc(C(=O)N(C)c3ccccc3Cl)sc1-2`, for which the Ki (usually the equilibrium dissociation constant of an inhibitor or competing ligand from its target) in series [1] came to 0.0015 µM. In addition, the clearance (commonly the volume of plasma or blood freed of the substance per unit of time) in series [2] was 44 mL/min/kg.
Turning to `CN(C(=O)c1cc2c(s1)-c1ccccc1OCC2)c1ccccc1Cl`, in [2], the clearance turned out to be 60 mL/min/kg.
`COc1ccccc1N(C)C(=O)c1cc2c(s1)-c1ccccc1OC2`: in [1], the IC50 came to 0.673 µM.
Consider `CNC(=O)c1ccc2c(c1)OCCc1cc(C(=O)N(C)c3ccc(C(=O)N(C)C)cc3Cl)sc1-2`, for which the IC50 in [3] came out at 0.53 µM; in [24], 0.006 µM. Further, the EC50 – broadly, the concentration that produces a half-maximal response – turned out to be 0.55 µM in [4] and 0.256 µM in series [5]. Further, the fraction unbound in series [6] is 0.03; in series [7] it was 0.03; in series [8], 0.02; in series [9] it was 0.07; in series [10], 0.09. Moreover, the clearance turned out to be 36 mL/min/kg in series [11]; 15 mL/min/kg in series [14]; 10 mL/min/kg in series [17]; 5 mL/min/kg in series [21]; 36 mL/min/kg in [2]; 15 mL/min/kg in series [25]. The values for the bioavailability in series [12], in series [15] and in [22] were 50%, 28% and 120%, respectively. Besides, the AUC – broadly, the area under the concentration-time curve, a measure of exposure – in [13] is 39 µM·h; in series [16], 330 µM·h; in series [23], 17 µM·h. Besides, the inhibition entry in [18], in [19] and in series [20] was “Active” throughout. Also, the concentration at 1 h in [26] is 7.38 µM; in series [28] it was 1.08 µM. Besides, the concentration at 6 h in [27] amounted to 11.1 µM; in [29] it was 2.24 µM.
The compound `CN(C(=O)c1cc2c(s1)-c1ccc(-c3cn[nH]c3)cc1OCC2)c1ccccc1Cl` returned a Ki in [1] of 0.0006 µM.
As for `CNC(=O)c1ccc2c(c1)OCCc1cc(C(=O)N(C)c3cc(C(=O)N(C)C)ccc3Cl)sc1-2`, the figures for the clearance in [2] and in [25] were 66 mL/min/kg and 55 mL/min/kg, respectively.
`CC(C)N(C)C(=O)c1cc2c(s1)-c1ccccc1OC2`: the IC50 in series [1] came to 5.2 µM.
The compound `CN(C(=O)c1cc2c(s1)-c1ccccc1OCCC2)c1ccccc1Cl` yielded an IC50 in [1] of more than 10 µM.
For `CN(C(=O)c1cc2c(s1)-c1ccc(-c3cn[nH]c3)cc1OCC2)c1ccncc1Cl`, in series [1], the Ki came out at 0.065 µM.
With `CNC(=O)c1ccc2c(c1)OCCc1cc(C(=O)N(C)c3ccc(F)cc3Cl)sc1-2`, the clearance stood at 153 mL/min/kg in series [2] and 182 mL/min/kg in series [25].
Take `CN(C(=O)c1cc2c(s1)-c1ccccc1OCC2)c1ccncc1Cl`: in series [1], the affinity corresponds to a Ki of 0.473 µM. For the same compound, the clearance in series [2] is 23 mL/min/kg.
The compound `CN(C(=O)c1cc2c(s1)-c1ccccc1OC2)c1cccc(F)c1` had an IC50 in [1] of 1 µM.
On to `CN(C(=O)c1cc2c(s1)-c1ccc(C(=O)N3CCOCC3)cc1OCC2)c1ccccc1Cl`, for which the Ki in series [1] is 0.031 µM.
`CC(C)CN(C)C(=O)c1cc2c(s1)-c1ccccc1OC2`: the IC50 in series [1] came out at 17 µM.
The compound `CNC(=O)c1ccc(N(C)C(=O)c2cc3c(s2)-c2ccc(C(=O)NC)cc2OCC3)c(Cl)c1` registered a Ki in series [1] of 0.0025 µM. Besides, the results for the clearance in series [2] and in series [25] were 28 mL/min/kg and 24 mL/min/kg, respectively.
As to `CN(C(=O)c1cc2c(s1)-c1ccc(C(N)=O)cc1OCC2)c1ccccc1Cl`, the Ki in series [1] was 0.0012 µM. The compound further displayed a clearance in [2] of 89 mL/min/kg.
Regarding `Cc1ccccc1N(C)C(=O)c1cc2c(s1)-c1ccccc1OC2`, in series [1], inhibition was half-maximal at 0.699 µM (IC50).
With `CNC(=O)c1ccc2c(c1)OCCc1cc(C(=O)N(C)c3ccccc3Cl)sc1-2`, the Stability in series [30] stood at 5 µM.

The values above are taken from ChEMBL document CHEMBL1795251, “Structure-based design of thienobenzoxepin inhibitors of PI3-kinase” (Bioorg Med Chem Lett, 2011).
